Here are results for 3 compounds from PMC7756392, “Syntheses of Thailandepsin B Pseudo‐Natural Products: Access to New Highly Potent HDAC Inhibitors via Late‐Stage Modification” (Chemistry (Weinheim an Der Bergstrasse, Germany), 2020).

Experiment [1] addresses T1, human recombinant HDAC6 (Homo sapiens, UniProt Q9UBN7).
T1 construct: purchased BPS Bioscience 50006
T1 sequence (Q9UBN7 1-1215): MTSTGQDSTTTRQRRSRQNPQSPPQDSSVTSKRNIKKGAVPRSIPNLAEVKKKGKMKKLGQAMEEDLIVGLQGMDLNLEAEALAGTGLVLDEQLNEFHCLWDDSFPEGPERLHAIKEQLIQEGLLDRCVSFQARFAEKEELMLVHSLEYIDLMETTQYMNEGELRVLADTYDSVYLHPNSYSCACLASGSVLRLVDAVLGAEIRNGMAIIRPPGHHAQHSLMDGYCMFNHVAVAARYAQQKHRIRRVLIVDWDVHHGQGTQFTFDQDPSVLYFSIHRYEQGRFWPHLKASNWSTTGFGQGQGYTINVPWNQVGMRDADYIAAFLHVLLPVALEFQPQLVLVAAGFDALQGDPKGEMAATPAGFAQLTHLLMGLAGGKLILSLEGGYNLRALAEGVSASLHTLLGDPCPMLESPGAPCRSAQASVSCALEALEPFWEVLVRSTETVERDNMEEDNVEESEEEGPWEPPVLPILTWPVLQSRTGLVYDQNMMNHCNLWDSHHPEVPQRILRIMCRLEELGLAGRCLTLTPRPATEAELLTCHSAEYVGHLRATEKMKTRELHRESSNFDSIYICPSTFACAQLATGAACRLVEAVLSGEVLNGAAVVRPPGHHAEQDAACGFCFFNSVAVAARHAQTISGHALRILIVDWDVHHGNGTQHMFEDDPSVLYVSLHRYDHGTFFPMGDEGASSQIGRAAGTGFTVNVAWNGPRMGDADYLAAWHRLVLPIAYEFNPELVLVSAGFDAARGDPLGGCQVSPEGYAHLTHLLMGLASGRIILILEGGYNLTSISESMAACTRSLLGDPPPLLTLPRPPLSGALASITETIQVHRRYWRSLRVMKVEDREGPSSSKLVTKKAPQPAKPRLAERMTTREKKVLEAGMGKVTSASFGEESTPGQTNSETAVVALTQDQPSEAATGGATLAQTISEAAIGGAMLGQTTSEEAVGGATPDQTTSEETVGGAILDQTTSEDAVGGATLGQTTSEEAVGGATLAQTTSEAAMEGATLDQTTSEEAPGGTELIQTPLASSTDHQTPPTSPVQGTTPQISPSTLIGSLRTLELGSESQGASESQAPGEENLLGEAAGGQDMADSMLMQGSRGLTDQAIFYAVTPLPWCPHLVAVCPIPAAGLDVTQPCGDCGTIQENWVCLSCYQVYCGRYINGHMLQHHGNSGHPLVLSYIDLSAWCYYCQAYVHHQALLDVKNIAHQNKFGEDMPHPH
The experiment can be described thus: ZMAL trypsin assay, HDAC6. The class given is biochemical. To be noted: for inhibition at 10 µM: ZMAL trypsin assay. On the procedure:
(§1) [28] Assays for HDAC1/6 were prepared according to: B. Heltweg , J. Trapp , M. Jung , Methods 2005, 36, 332–337; assays for HDAC8 were prepared according to: J. Senger , J. Melesina , M. Marek , C. Romier , I. Oehme , O. Witt , W. Sippl , M. Jung , J. Med. Chem. 2016, 59, 1545–1555. […]
hHDAC1/6: Activity assays were performed in OptiPlateTM-96 F black microplates (PerkinElmer). Commercial available enzymes (human recombinant HDAC1; BPS Bioscience, catalog no. 50051 and human recombinant HDAC6; BPS Bioscience, catalog no. 50006) were used. Total assay volume of 60 µL contains 42 µl of assay buffer (50 mM Tris -HCl, pH 8.0, 137 mM NaCl, 2.7 mM KCl, 1 mM MgCl2, 0.2 mM TCEP and 1 mg/mL bovine serum albumin), 10 µL of enzyme solution in assay buffer, 3 µL of increasing concentrations of inhibitors in DMSO and 5 μL of the fluorogenic substrate ZMAL (Z -(Ac)Lys-AMC) (126 μM). After incubation (90 min, 37 °C) 60 µL of stop solution, containing 5 μL Trichostatin A (TSA) (33 μM) and 10 μL trypsin (6 mg/mL) in trypsin buffer (Tris-HCl 50 mM, pH 8.0, NaCl 100 mM), were added. […]

Experiment [2] has as its system HDAC in HL60 cells. The experiment is described as follows: Cellular HDAC activity assay, HL60. The class given is cell-based. Particulars: read-out: cellular HDAC inhibition IC50. The protocol:
Cellular trypsin-based activity assay:13 1 x 10^4 Hela cells (50 µL) were seeded in sterile dark 96-well microtiter plates (Perkin Elmer) and incubated overnight at 37 °C and 5% CO2 atmosphere. The next day, the medium was aspirated and the cells were incubated with different inhibitor concentrations or DMSO, diluted in 50 µL m edium without supplements and phenol red. After 2 h incubation time, 50 µL of the HDAC substrate MAL (Boc -Lys(Ac)-AMC) were added to a final concentration of 150 µM and the plate was incubated for 2 h at 37°C and 5%
CO2. The reaction was stopped by adding 50 µL of stop solution (50 mM Tris, 137 mM NaCl, 1 mM MgCl2, 2.7 mM KCl, 1 µM TSA, 0.1% Igepal, 1 mg/ml Trypsin). After another 20 min of incubation, the fluorescence signal (λex = 390 nm, λem = 460 nm) was measured on a BMG LABTECH POLARstar OPTIMA plate reader (BMG Labtechnologies, Germany). […]

Experiment [3] has as its target T2, hHDAC8 (Homo sapiens, UniProt Q9BY41).
T2 sequence (Q9BY41 1-377): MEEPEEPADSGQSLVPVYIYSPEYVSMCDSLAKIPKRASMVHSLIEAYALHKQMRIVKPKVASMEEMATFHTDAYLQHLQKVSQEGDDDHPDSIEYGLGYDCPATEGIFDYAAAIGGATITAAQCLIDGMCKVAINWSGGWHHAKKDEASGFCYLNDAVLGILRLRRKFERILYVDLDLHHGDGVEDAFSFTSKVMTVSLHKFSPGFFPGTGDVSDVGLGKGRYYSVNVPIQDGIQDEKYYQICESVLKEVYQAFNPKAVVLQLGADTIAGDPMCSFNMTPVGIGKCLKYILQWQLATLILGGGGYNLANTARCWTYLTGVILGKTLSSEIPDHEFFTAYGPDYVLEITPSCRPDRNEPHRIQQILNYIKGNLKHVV
The experiment is described as follows: ZMTFAL trypsin assay, HDAC8. The class given is biochemical. On the procedure: as §1
After […]
incubation (30 min at 37 °C) fluorescence signal (λex = 390 nm, λem = 460 nm) was measured on a BMG LABTECH POLARstar OPTIMA plate reader (BMG Labtechnologies, Germany).10 hHDAC8: Enzyme was obtained from cooperation partners (Romier).11 Assay was performed as described before. 22.5 µL of enzyme solution in assay buffer (15 mM Tris, pH 7.5, 50 mM KH2PO4, 10 mM KCl, 3 mM MgSO4·7H2O and 0.2 mM TCEP), increasing inhibitor concentrations in DMSO (2.5 μL) and 5 µL of ZMTFAL substrate solution ([…]) were incubated for 90 min at 37 °C in ½ AreaPlate-96 F microplates (PerkinElmer). 30 µL of stop solution (see HDAC1/6) were added. After incubation (30 min at 37 °C) fluorescence signal was […]

Some results are limits rather than exact numbers.

Usually inhibition stands for the change of the read-out against control, counted positive when it falls. For orientation: IC50 means the point on the concentration scale where inhibition reaches its midpoint.

Turning to `CCCC[C@H]1NC(=O)C[C@@H](/C=C/CCSC(C)=O)OC(=O)C[C@H](O)[C@@H]([C@@H](C)CC)NC(=O)[C@@H](C)NC1=O` [compound 33], the inhibition at 10 µM in experiment [1] was 30%; in experiment [3] it was 22%. Also, the IC50 in experiment [2] turned out to be 0.0091 ± 0.0008 µM.
With `CCCC[C@H]1NC(=O)C[C@@H](/C=C/CCSC(C)=O)OC(=O)C[C@H](O[Si](C)(C)C(C)(C)C)[C@@H]([C@@H](C)CC)NC(=O)[C@@H](C)NC1=O` [compound 32], the “HDAC6 inhibition (in words)” value in experiment [1] is “not inhibited”. Further, the inhibition at 10 µM in experiment [1] is under 5%; in experiment [3] it was 30%. Also, the IC50 in experiment [2] came out at 66.3 ± 3.5 µM.
As to `CCCC[C@H]1NC(=O)C[C@@H](/C=C/CCC(=O)NO)OC(=O)C[C@H](O)[C@@H]([C@@H](C)CC)NC(=O)[C@@H](C)NC1=O` [compound 8], the values for the inhibition at 10 µM in experiment [1] and in experiment [3] were 39% and 21%, respectively.
